Activity calls are given as the source filed them. The calls are words filed in the database; no cut-off is given here.
How the values were obtained:
[1] = test system: BaF3; test: PROTAC activity at CRBN/KIF5B-RET (unknown origin) expressed in mouse BaF3 cells assessed as induction of RET degradation at 10 nM incubated for 24 hrs by immunoblot analysis; assay type: cell-based
[2] = test system: BaF3; test: PROTAC activity at CRBN/KIF5B-RET (unknown origin) expressed in mouse BaF3 cells assessed as induction of RET degradation at 10 nM incubated for 24 hrs by immunoblot analysis relative to control; assay type: cell-based
[3] = test system: BaF3; test: Antiproliferative activity against mouse BaF3 cells stably expressing KIF5B-RET G810S mutant incubated for 72 hrs by CCK8 assay; assay type: functional, cell-based; conditions: BaF3, 72 h
[4] = target: Proto-oncogene tyrosine-protein kinase receptor Ret (Homo sapiens, UniProt P07949); test: Inhibition of RET (unknown origin) preincubated for 10 mins followed by substrate/ATP addition measured after 30 mins by HTRF assay
Chain of Proto-oncogene tyrosine-protein kinase receptor Ret (P07949 whole entry): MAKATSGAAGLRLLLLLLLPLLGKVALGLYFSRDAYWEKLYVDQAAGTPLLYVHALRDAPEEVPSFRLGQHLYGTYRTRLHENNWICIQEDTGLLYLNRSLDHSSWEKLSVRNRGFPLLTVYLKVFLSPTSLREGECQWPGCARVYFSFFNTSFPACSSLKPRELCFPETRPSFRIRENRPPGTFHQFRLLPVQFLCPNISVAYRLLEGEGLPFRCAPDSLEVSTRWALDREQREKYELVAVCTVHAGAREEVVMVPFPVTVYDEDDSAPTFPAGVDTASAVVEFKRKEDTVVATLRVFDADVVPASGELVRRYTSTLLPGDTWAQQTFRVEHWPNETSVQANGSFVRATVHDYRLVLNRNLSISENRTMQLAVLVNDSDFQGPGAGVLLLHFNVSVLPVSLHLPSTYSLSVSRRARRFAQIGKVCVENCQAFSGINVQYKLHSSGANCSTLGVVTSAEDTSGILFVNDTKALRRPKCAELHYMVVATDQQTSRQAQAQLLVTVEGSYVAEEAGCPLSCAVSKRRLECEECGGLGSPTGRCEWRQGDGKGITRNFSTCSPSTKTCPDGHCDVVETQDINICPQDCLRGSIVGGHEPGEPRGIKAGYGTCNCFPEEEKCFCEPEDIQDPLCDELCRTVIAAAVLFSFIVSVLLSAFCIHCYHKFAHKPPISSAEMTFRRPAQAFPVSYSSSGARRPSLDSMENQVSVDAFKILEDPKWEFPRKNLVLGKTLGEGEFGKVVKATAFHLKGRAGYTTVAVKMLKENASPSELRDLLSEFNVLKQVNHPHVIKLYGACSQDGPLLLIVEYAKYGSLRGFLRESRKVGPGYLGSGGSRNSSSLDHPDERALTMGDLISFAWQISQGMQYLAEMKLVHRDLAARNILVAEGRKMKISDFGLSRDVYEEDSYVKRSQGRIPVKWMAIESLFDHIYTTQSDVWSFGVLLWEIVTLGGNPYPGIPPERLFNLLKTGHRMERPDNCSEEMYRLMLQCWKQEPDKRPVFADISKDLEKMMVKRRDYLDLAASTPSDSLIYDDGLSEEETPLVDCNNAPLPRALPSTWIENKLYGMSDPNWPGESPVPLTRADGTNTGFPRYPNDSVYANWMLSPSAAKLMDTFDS

[5] = test system: BaF3; test: Antiproliferative activity against mouse BaF3 cells stably expressing KIF5B-RET G810C mutant incubated for 72 hrs by CCK8 assay; assay type: functional, cell-based; conditions: BaF3, 72 h
[6] = test system: BaF3; test: Antiproliferative activity against mouse BaF3 cells stably expressing KIF5B-RET V804M mutant incubated for 72 hrs by CCK8 assay; assay type: functional, cell-based; conditions: BaF3, 72 h
[7] = test system: BaF3; test: Antiproliferative activity against mouse BaF3 cells stably expressing KIF5B-RET incubated for 72 hrs by CCK8 assay; assay type: functional, cell-based; conditions: BaF3, 72 h
[8] = test system: BaF3; test: Antiproliferative activity against mouse BaF3 cells stably expressing KIF5B-RET G810R mutant incubated for 72 hrs by CCK8 assay; assay type: functional, cell-based; conditions: BaF3, 72 h
[9] = test system: BaF3; test: Induction of degradation of KIF5B-RET (unknown origin) expressed in mouse BaF3 cells at 10 nM incubated for 24 hrs by immunoblot analysis relative to control; assay type: cell-based; conditions: Homo sapiens
[10] = test system: BaF3; test: PROTAC activity at VHL/KIF5B-RET (unknown origin) expressed in mouse BaF3 cells assessed as induction of RET degradation at 10 nM incubated for 24 hrs by immunoblot analysis relative to control; assay type: cell-based
[11] = Induction of apoptosis in mouse BaF3 cells stably expressing KIF5B-RET G810C mutant assessed as early apoptotic cells at 100 nM incubated for 48 hrs by Annexin V-FITC/PI staining based flow cytometry (reference value: 0.86 %); assay type: functional
[12] = test system: BaF3; test: Antiproliferative activity against mouse BaF3 cells stably expressing CCDC6-RET incubated for 72 hrs by CCK8 assay; assay type: functional, cell-based; conditions: BaF3, 72 h
[13] = test system: BaF3; test: Antiproliferative activity against mouse BaF3 cells stably expressing CCDC6-RET G810R mutant incubated for 72 hrs by CCK8 assay; assay type: functional, cell-based; conditions: BaF3, 72 h
[14] = Induction of apoptosis in mouse BaF3 cells stably expressing KIF5B-RET G810C mutant assessed as viable cells at 100 nM incubated for 48 hrs by Annexin V-FITC/PI staining based flow cytometry (reference value: 92.21 %); assay type: functional; conditions: read-out: Activity
[15] = test system: BaF3; test: Antiproliferative activity against mouse BaF3 cells stably expressing CCDC6-RET V804M mutant incubated for 72 hrs by CCK8 assay; assay type: functional, cell-based; conditions: BaF3, 72 h
[16] = test system: BaF3; test: Antiproliferative activity against mouse BaF3 cells stably expressing CCDC6-RET G810C mutant incubated for 72 hrs by CCK8 assay; assay type: functional, cell-based; conditions: BaF3, 72 h
[17] = Induction of apoptosis in mouse BaF3 cells stably expressing KIF5B-RET G810C mutant assessed as late apoptotic cells at 100 nM incubated for 48 hrs by Annexin V-FITC/PI staining based flow cytometry (reference value: 5.99 %); assay type: functional
[18] = Induction of apoptosis in mouse BaF3 cells stably expressing KIF5B-RET G810C mutant assessed as necrotic cells at 100 nM incubated for 48 hrs by Annexin V-FITC/PI staining based flow cytometry (reference value: 0.94 %); assay type: functional

Compound | Activity [1] | Activity [2] | IC50 [3] | IC50 [4] | IC50 [5] | IC50 [6] | IC50 [7] | IC50 [8] | Activity [9] | Activity [10] | Activity [11] | IC50 [12] | IC50 [13] | viability at 0.1 µM [14] | IC50 [15] | IC50 [16] | Activity [17] | Activity [18]
COc1ccc(CN2C3CC2CN(c2ccc(-c4cc(N5CCC(N6CCN(CCCC#Cc7cccc8c7CN(C7CCC(=O)N(C)C7=O)C8=O)CC6)CC5)cn5ncc(C#N)c45)cn2)C3)cn1 (stereo not drawn) | inactive | – | – | – | – | – | – | – | – | – | – | – | – | – | – | – | – | –
COc1ccc(CN2C3CC2CN(c2ccc(-c4cc(N5CCN(CC6CN(c7ccc8c(c7)C(=O)N(C7CCC(=O)NC7=O)C8=O)C6)CC5)cn5ncc(C#N)c45)cn2)C3)cn1 (stereo not drawn) | – | 72% | 35.7 nM | 0.227 nM | 145 nM | 11.5 nM | 1.9 nM | 1030 nM | – | – | – | – | – | – | – | – | – | –
COc1ccc(CN2C3CC2CN(c2ccc(-c4cc(N5CCNCC5)cn5ncc(C#N)c45)cn2)C3)cn1 | – | – | 98.6 nM | – | 107 nM | 36.1 nM | 5.6 nM | 770 nM | 0% | – | – | – | – | – | – | – | – | –
COc1ccc(CN2C3CC2CN(c2ccc(-c4cc(N5CCC(N6CCN(C(=O)CCCNc7cccc8c7C(=O)N(C7CCC(=O)NC7=O)C8=O)CC6)CC5)cn5ncc(C#N)c45)cn2)C3)cn1 (stereo not drawn) | – | 62% | 76.1 nM | 0.276 nM | 149 nM | 11.3 nM | 2.5 nM | 513 nM | – | – | – | – | – | – | – | – | – | –
COc1ccc(CN2C3CC2CN(c2ccc(-c4cc(N5CCC(N6CCNCC6)CC5)cn5ncc(C#N)c45)cn2)C3)cn1 | – | – | 113 nM | – | 156 nM | 42.9 nM | 4.3 nM | 724 nM | 0% | – | – | – | – | – | – | – | – | –
COc1ccc(CN2C3CC2CN(c2ccc(-c4cc(N5CCN(C6CN(c7ccc8c(c7)C(=O)N(C7CCC(=O)NC7=O)C8=O)C6)CC5)cn5ncc(C#N)c45)cn2)C3)cn1 (stereo not drawn) | – | 71% | 52.6 nM | 0.215 nM | 322 nM | 8.1 nM | 2.8 nM | 1110 nM | – | – | – | – | – | – | – | – | – | –
COc1ccc(CN2C3CC2CN(c2ccc(-c4cc(N5CCN(C(=O)CCCCCCCNc6cccc7c6C(=O)N(C6CCC(=O)NC6=O)C7=O)CC5)cn5ncc(C#N)c45)cn2)C3)cn1 (stereo not drawn) | – | 73% | 62.1 nM | 0.203 nM | 126 nM | 13.7 nM | 1.6 nM | 453 nM | – | – | – | – | – | – | – | – | – | –
COc1ccc(CN2C3CC2CN(c2ccc(-c4cc(N5CCN(CCC(=O)N[C@H](C(=O)N6C[C@H](O)C[C@H]6C(=O)N[C@@H](C)c6ccc(-c7scnc7C)cc6)C(C)(C)C)CC5)cn5ncc(C#N)c45)cn2)C3)cn1 | – | – | 723 nM | – | 254 nM | 126 nM | 86.8 nM | > 5000 nM | – | 29% | – | – | – | – | – | – | – | –
COc1ccc(CN2C3CC2CN(c2ccc(-c4cc(N5CCN(CCCCCCCCC(=O)N[C@H](C(=O)N6C[C@H](O)C[C@H]6C(=O)N[C@@H](C)c6ccc(-c7scnc7C)cc6)C(C)(C)C)CC5)cn5ncc(C#N)c45)cn2)C3)cn1 | – | – | 674 nM | – | 522 nM | 108 nM | 14.2 nM | 1880 nM | – | 38% | – | – | – | – | – | – | – | –
COc1ccc(CN2C3CC2CN(c2ccc(-c4cc(N5CCC(N6CCN(C(=O)CCCCCNc7ccc8c(c7)C(=O)N(C7CCC(=O)NC7=O)C8=O)CC6)CC5)cn5ncc(C#N)c45)cn2)C3)cn1 (stereo not drawn) | – | 61% | 78.3 nM | 0.391 nM | 182 nM | 13.1 nM | 2.9 nM | 552 nM | – | – | – | – | – | – | – | – | – | –
COc1ccc(CN2C3CC2CN(c2ccc(-c4cc(N5CCN(C(=O)CCCCCCC(=O)N[C@H](C(=O)N6C[C@H](O)C[C@H]6C(=O)N[C@@H](C)c6ccc(-c7scnc7C)cc6)C(C)(C)C)CC5)cn5ncc(C#N)c45)cn2)C3)cn1 | – | – | > 5000 nM | – | > 5000 nM | 372 nM | 177 nM | > 5000 nM | – | 17% | – | – | – | – | – | – | – | –
COc1ccc(CN2C3CC2CN(c2ccc(-c4cc(N5CCN(C(=O)CCCCCCCCC(=O)N[C@H](C(=O)N6C[C@H](O)C[C@H]6C(=O)N[C@@H](C)c6ccc(-c7scnc7C)cc6)C(C)(C)C)CC5)cn5ncc(C#N)c45)cn2)C3)cn1 | – | – | 216 nM | – | 410 nM | 36.5 nM | 12.3 nM | > 5000 nM | – | 39% | – | – | – | – | – | – | – | –
COc1ccc(CN2C3CC2CN(c2ccc(-c4cc(OCC(C)(C)O)cn5ncc(C#N)c45)cn2)C3)cn1 [SELPERCATINIB] | – | – | 95.2 nM | – | 380 nM | 16.5 nM | 7.7 nM | 690 nM | 0% | – | 1.04% | 4.2 nM | 365 nM | 90.7% | 12.2 nM | 626 nM | 6.67% | 1.63%
COc1ccc(CN2C3CC2CN(c2ccc(-c4cc(N5CCC(N6CCN(C(=O)CCCCCNc7cccc8c7C(=O)N(C7CCC(=O)NC7=O)C8=O)CC6)CC5)cn5ncc(C#N)c45)cn2)C3)cn1 (stereo not drawn) | – | 72% | 53.6 nM | 0.329 nM | 50.4 nM | 5.2 nM | 1.8 nM | 376 nM | – | – | – | – | – | – | – | – | – | –

Source: ChEMBL document CHEMBL6096698, “Discovery of a Selective and Orally Bioavailable RET Degrader with Effectiveness in Various Mutations” (J Med Chem, 2025)
